Laboratory results published in patent US9579316B2, “Salts of 2-amino-1-hydroxyethyl-8-hydroxyquinolin-2(1H)-one derivatives having both muscarinic receptor antagonist and β2 adrenergic receptor agonist activities” (priority 2013, dated 2017).

Legend:
[1] = Differential scanning calorimetry (DSC) analysis; type: physicochemical
Procedure: DSC analyses were recorded either in a Mettler Toledo DSC822e or using a DSC-821 Mettler-Toledo, serial number 5117423874. In the case of a Mettler Toledo DSC822e equipment, samples of 1-3 mg were weighted (using a microscale MX5, Mettler) into 40 μL aluminium crucibles with a pinhole lid, and were heated, under nitrogen flow (50 mL/min), from 30 to 300° C. at a heating rate of 10° C./min. Data collection and evaluation was done with software STARe. In case of a DSC-821 Mettler-Toledo, serial number 5117423874 equipment, samples were weighed into an aluminium pan, an aluminium pinhole lid placed on top of the sample and compressed with a brass rod. Samples were equilibrated at 25° C. and heated at 10° C./min to 300° C. The instrument was calibrated using indium and zinc standards.

[2] = Thermogravimetric (TG) analysis; type: physicochemical; details: for TG analysis: temperature until which no significant changes are observed (then loss of mass / decomposition): heated at 10° C./min between 30 and 300° C., nitrogen flow
Procedure: Thermogravimetric analyses were recorded in a Mettler Toledo SDTA851e. Samples of 1-3 mg were weighted (using a microscale MX5, Mettler) 40 μL aluminium crucibles with a pinhole lid, and were heated at 10° C./min between 30 and 300° C., under nitrogen flow (50 mL/min). Data collection and evaluation was done with software STARe.

SMILES | stability (no conversion into other polymorphs, no decomposition below the DSC endotherm) [1] | DSC endothermic curve onset (possible decomposition of the salt) ([1]; heating rate 10° C./min) | TG analysis: temperature until which no significant changes are observed (then loss of mass / decomposition) [2] | hygroscopicity (no solvent/water release in TG) ([2]; no change prior to 140° C., in particular at 80-100° C.) | DSC endothermic curve maximum (possible fusion/decomposition of the salt) ([1]; heating rate 10° C./min) [°C]
CN(CCCn1nnc2cc(CNC[C@H](O)c3ccc(O)c4[nH]c(=O)ccc34)ccc21)[C@H]1CC[C@H](OC(=O)C(O)(c2cccs2)c2cccs2)CC1.O=C1NS(=O)(=O)c2ccccc21 (relative stereo) [Example 1, trans-4-[{3-[5-({[(2R)-2-hydroxy-2-(8-hydroxy-2-oxo-1,2-dihydroquinolin-5-yl)ethyl]amino}methyl)-1H-1,2,3-benzotriazole-1-yl]propyl}(methyl)-amino]cyclohexyl hydroxy(di-2-thienyl)acetate saccharinate] | high stability | about 170 °C | 130-140 °C | lack of hygroscopicity | 
CN(CCCn1c(=O)sc2cc(CNC[C@H](O)c3ccc(O)c4[nH]c(=O)ccc34)ccc21)[C@H]1CC[C@H](OC(=O)C(O)(c2cccs2)c2cccs2)CC1.O=C(O)/C=C/C(=O)O [Example 2, trans-4-[{3-[6-({[(2R)-2-hydroxy-2-(8-hydroxy-2-oxo-1,2-dihydroquinolin-5-yl)ethyl]amino}methyl)-2-oxo-1,3-benzothiazole-3(2H)-yl]propyl}(methyl)amino]cyclohexyl hydroxy(di-2-thienyl)acetate fumarate] | high stability |  | about 140 °C |  | 134
